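Following 48 hours of exposure in 96-well plates, responses at five concentrations were used to interpolate endpoints linearly. Here, GI50 denotes the concentration required for 50% inhibition of growth. The concentration for full growth arrest is given as TGI.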
Legend:
Assay in all cases: NCI anticancer screen, dose series, 48 h
786-0 renal = test system: 786-0 renal
A498 renal = test system: A498 renal
A549 NSCLC = test system: A549 NSCLC
ACHN renal = test system: ACHN renal
CAKI-1 renal = test system: CAKI-1 renal
CCRF-CEM leukemia = test system: CCRF-CEM leukemia
COLO 205 colon = test system: COLO 205 colon
DU-145 prostate = test system: DU-145 prostate
EKVX NSCLC = test system: EKVX NSCLC
HCC-2998 colon = test system: HCC-2998 colon
HCT-116 colon = test system: HCT-116 colon
HCT-15 colon = test system: HCT-15 colon
HOP-62 NSCLC = test system: HOP-62 NSCLC
HOP-92 NSCLC = test system: HOP-92 NSCLC
HS 578T breast = test system: HS 578T breast
HT29 colon = test system: HT29 colon
IGROV1 ovarian = test system: IGROV1 ovarian
K-562 leukemia = test system: K-562 leukemia
KM12 colon = test system: KM12 colon
LOX IMVI melanoma = test system: LOX IMVI melanoma
M14 melanoma = test system: M14 melanoma
MALME-3M melanoma = test system: MALME-3M melanoma
MCF7 breast = test system: MCF7 breast
MDA-MB-231 breast = test system: MDA-MB-231 breast
MDA-MB-435 = test system: MDA-MB-435
MOLT-4 leukemia = test system: MOLT-4 leukemia
NCI-H226 lung = test system: NCI-H226 lung
NCI-H23 lung = test system: NCI-H23 lung
NCI-H460 lung = test system: NCI-H460 lung
NCI-H522 lung = test system: NCI-H522 lung
NCI/ADR-RES ovarian = test system: NCI/ADR-RES ovarian
OVCAR-3 ovarian = test system: OVCAR-3 ovarian
OVCAR-4 ovarian = test system: OVCAR-4 ovarian
OVCAR-5 ovarian = test system: OVCAR-5 ovarian
OVCAR-8 ovarian = test system: OVCAR-8 ovarian
PC-3 prostate = test system: PC-3 prostate
RPMI-8226 leukemia = test system: RPMI-8226 leukemia
RXF 393 renal = test system: RXF 393 renal
SF-268 CNS = test system: SF-268 CNS
SF-295 CNS = test system: SF-295 CNS
SF-539 CNS = test system: SF-539 CNS
SK-MEL-2 melanoma = test system: SK-MEL-2 melanoma
SK-MEL-28 melanoma = test system: SK-MEL-28 melanoma
SK-MEL-5 melanoma = test system: SK-MEL-5 melanoma
SK-OV-3 ovarian = test system: SK-OV-3 ovarian
SN12C renal = test system: SN12C renal
SNB-19 CNS = test system: SNB-19 CNS
SNB-75 CNS = test system: SNB-75 CNS
SR leukemia = test system: SR leukemia
SW-620 colon = test system: SW-620 colon
T-47D breast = test system: T-47D breast
TK-10 renal = test system: TK-10 renal
U251 CNS = test system: U251 CNS
UACC-257 melanoma = test system: UACC-257 melanoma
UACC-62 melanoma = test system: UACC-62 melanoma
UO-31 renal = test system: UO-31 renal

In the case of `COc1ccc(OC)c(N2CC(O)=C(c3nc4ccccc4s3)C2=N)c1`, the GI50 (786-0 renal) is reported as > 100 µM, the TGI (786-0 renal) is reported as > 100 µM and the GI50 (A498 renal) is reported as 18.9 µM. The TGI (A498 renal) was 59.6 µM, the GI50 (A549 NSCLC) was 71.2 µM and the TGI (A549 NSCLC) was > 100 µM. The GI50 (ACHN renal) was 51.6 µM, the TGI (ACHN renal) was > 100 µM and the GI50 (CAKI-1 renal) was 76.6 µM. The TGI (CAKI-1 renal) was > 100 µM, the GI50 (CCRF-CEM leukemia) was 0.541 µM and the TGI (CCRF-CEM leukemia) was > 100 µM. For the same compound, the GI50 (COLO 205 colon) was 47.3 µM, the TGI (COLO 205 colon) was > 100 µM and the GI50 (DU-145 prostate) was > 100 µM. For the same compound, the TGI (DU-145 prostate) was > 100 µM, the GI50 (EKVX NSCLC) was 67.3 µM and the TGI (EKVX NSCLC) was > 100 µM. For the same compound, the GI50 (HCC-2998 colon) was 32.5 µM, the TGI (HCC-2998 colon) was > 100 µM and the GI50 (HCT-116 colon) was 57.5 µM. The TGI (HCT-116 colon) was > 100 µM, the GI50 (HCT-15 colon) was 5.22 µM and the TGI (HCT-15 colon) was > 100 µM. The GI50 (HOP-62 NSCLC) was > 100 µM, the TGI (HOP-62 NSCLC) was > 100 µM and the GI50 (HOP-92 NSCLC) was 40.6 µM. For the same compound, the TGI (HOP-92 NSCLC) was > 100 µM, the GI50 (HS 578T breast) was 34.5 µM and the TGI (HS 578T breast) was > 100 µM. For the same compound, the GI50 (HT29 colon) was 42.8 µM, the TGI (HT29 colon) was > 100 µM and the GI50 (IGROV1 ovarian) was 33.1 µM. For the same compound, the TGI (IGROV1 ovarian) was > 100 µM, the GI50 (K-562 leukemia) was 23.6 µM and the TGI (K-562 leukemia) was > 100 µM. For the same compound, the GI50 (KM12 colon) was 39.1 µM, the TGI (KM12 colon) was > 100 µM and the GI50 (LOX IMVI melanoma) was 45.4 µM. The TGI (LOX IMVI melanoma) was > 100 µM, the GI50 (M14 melanoma) was > 100 µM and the TGI (M14 melanoma) was > 100 µM. It also gave a GI50 (MALME-3M melanoma) of 16.4 µM, a TGI (MALME-3M melanoma) of 82 µM and a GI50 (MCF7 breast) of 60.8 µM. The TGI (MCF7 breast) was > 100 µM, the GI50 (MDA-MB-231 breast) was 20.6 µM and the TGI (MDA-MB-231 breast) was > 100 µM. For the same compound, the GI50 (MDA-MB-435) was 20.8 µM, the TGI (MDA-MB-435) was > 100 µM and the GI50 (MOLT-4 leukemia) was 4.16 µM. The TGI (MOLT-4 leukemia) was > 100 µM, the GI50 (NCI-H226 lung) was 56.9 µM and the TGI (NCI-H226 lung) was > 100 µM. The GI50 (NCI-H23 lung) was > 100 µM, the TGI (NCI-H23 lung) was > 100 µM and the GI50 (NCI-H460 lung) was 63 µM. For the same compound, the TGI (NCI-H460 lung) was > 100 µM, the GI50 (NCI-H522 lung) was 17.9 µM and the TGI (NCI-H522 lung) was 78.1 µM. For the same compound, the GI50 (NCI/ADR-RES ovarian) was 88.9 µM, the TGI (NCI/ADR-RES ovarian) was > 100 µM and the GI50 (OVCAR-3 ovarian) was 74.1 µM. The TGI (OVCAR-3 ovarian) was > 100 µM, the GI50 (OVCAR-4 ovarian) was 45.6 µM and the TGI (OVCAR-4 ovarian) was > 100 µM. For the same compound, the GI50 (OVCAR-5 ovarian) was > 100 µM, the TGI (OVCAR-5 ovarian) was > 100 µM and the GI50 (OVCAR-8 ovarian) was 98.7 µM. For the same compound, the TGI (OVCAR-8 ovarian) was > 100 µM, the GI50 (PC-3 prostate) was 52.5 µM and the TGI (PC-3 prostate) was > 100 µM. The GI50 (RPMI-8226 leukemia) was 35.7 µM, the TGI (RPMI-8226 leukemia) was > 100 µM and the GI50 (RXF 393 renal) was 95 µM. For the same compound, the TGI (RXF 393 renal) was > 100 µM, the GI50 (SF-268 CNS) was > 100 µM and the TGI (SF-268 CNS) was > 100 µM. The GI50 (SF-295 CNS) was 60.9 µM, the TGI (SF-295 CNS) was > 100 µM and the GI50 (SF-539 CNS) was 83.8 µM. The TGI (SF-539 CNS) was > 100 µM, the GI50 (SK-MEL-2 melanoma) was 26.1 µM and the TGI (SK-MEL-2 melanoma) was > 100 µM. For the same compound, the GI50 (SK-MEL-28 melanoma) was 49.5 µM, the TGI (SK-MEL-28 melanoma) was > 100 µM and the GI50 (SK-MEL-5 melanoma) was 14.7 µM. The TGI (SK-MEL-5 melanoma) was 46.6 µM, the GI50 (SK-OV-3 ovarian) was > 100 µM and the TGI (SK-OV-3 ovarian) was > 100 µM. The GI50 (SN12C renal) was 58 µM, the TGI (SN12C renal) was > 100 µM and the GI50 (SNB-19 CNS) was > 100 µM. For the same compound, the TGI (SNB-19 CNS) was > 100 µM, the GI50 (SNB-75 CNS) was 32 µM and the TGI (SNB-75 CNS) was > 100 µM. The GI50 (SR leukemia) was 6.77 µM, the TGI (SR leukemia) was > 100 µM and the GI50 (SW-620 colon) was 32.7 µM. For the same compound, the TGI (SW-620 colon) was > 100 µM, the GI50 (T-47D breast) was > 100 µM and the TGI (T-47D breast) was > 100 µM. The GI50 (TK-10 renal) was > 100 µM, the TGI (TK-10 renal) was > 100 µM and the GI50 (U251 CNS) was 51.5 µM. The TGI (U251 CNS) was > 100 µM, the GI50 (UACC-257 melanoma) was > 100 µM and the TGI (UACC-257 melanoma) was > 100 µM. The GI50 (UACC-62 melanoma) was 26.4 µM, the TGI (UACC-62 melanoma) was > 100 µM and the GI50 (UO-31 renal) was 36.2 µM. The TGI (UO-31 renal) was > 100 µM.

Source: PubChem BioAssay (NCI)
